The values that follow come from patent publication US9796733B2, “Imidazo-pyrazine derivatives useful as soluble guanylate cyclase activators” (Merck Sharp & Dohme Corp., priority 2014, dated 2017).

Test [1] relates to Spontaneously hypertensive rats (SHR). In words: Acute efficacy in spontaneously hypertensive rats (SHR): telemetry blood pressure lowering after a single oral dose. In kind it is in vivo, rat. An excerpt: Acute Efficacy in Spontaneously Hypertensive Rats (SHR)
Spontaneously hypertensive rats (SHR, male, Charles River) were implanted with DSI TA11PA-C40 telemetry device (Data Sciences, Inc., St. Paul, Minn.) under isoflurane or ketamine/metomidine anesthesia. The telemetry unit catheter was inserted into the descending aorta via the femoral artery and the telemetry device was implanted subcutaneously in the left flank area. Animals were allowed to recover from surgery for 14 days before the start of any studies. Blood pressure, heart rate, and activity signals from conscious, freely moving rats were recorded continuously for 30 seconds every 10 minutes. On the day prior to administration of compound, a single oral dose of vehicle (10% transcutol/20% Cremophor/70% water) was administered to all animals to establish baseline control data. The blood pressure lowering efficacy of compound (PO) or vehicle was evaluated following a single oral gavage. Data were collected as hourly averages, and changes in blood pressure were calculated by subtracting control baseline data on an hourly basis. Animals were maintained on normal diet with a 12 hour light-dark cycle.
Maximum peak decreases of systolic blood pressure (SBP) in SHR at a particular P.O. dose (mpk milligrams per kilogram) for the following representative compounds are provided. Category A=SBP in SHRs<20 mmHg; Category B=SBP in SHRs 20-40 mmHg; Category C=SBP in SHRs>40 mmHg

The target of another test is T1, sGC α1/β1 heterodimer (Homo sapiens, UniProt Q02108+Q02153).
T1 construct: expressed in transfected cells; host or cells: CHO-K1 (clone #7, CHO-K1/sGC)
T1 sequence (Q02108 1-690): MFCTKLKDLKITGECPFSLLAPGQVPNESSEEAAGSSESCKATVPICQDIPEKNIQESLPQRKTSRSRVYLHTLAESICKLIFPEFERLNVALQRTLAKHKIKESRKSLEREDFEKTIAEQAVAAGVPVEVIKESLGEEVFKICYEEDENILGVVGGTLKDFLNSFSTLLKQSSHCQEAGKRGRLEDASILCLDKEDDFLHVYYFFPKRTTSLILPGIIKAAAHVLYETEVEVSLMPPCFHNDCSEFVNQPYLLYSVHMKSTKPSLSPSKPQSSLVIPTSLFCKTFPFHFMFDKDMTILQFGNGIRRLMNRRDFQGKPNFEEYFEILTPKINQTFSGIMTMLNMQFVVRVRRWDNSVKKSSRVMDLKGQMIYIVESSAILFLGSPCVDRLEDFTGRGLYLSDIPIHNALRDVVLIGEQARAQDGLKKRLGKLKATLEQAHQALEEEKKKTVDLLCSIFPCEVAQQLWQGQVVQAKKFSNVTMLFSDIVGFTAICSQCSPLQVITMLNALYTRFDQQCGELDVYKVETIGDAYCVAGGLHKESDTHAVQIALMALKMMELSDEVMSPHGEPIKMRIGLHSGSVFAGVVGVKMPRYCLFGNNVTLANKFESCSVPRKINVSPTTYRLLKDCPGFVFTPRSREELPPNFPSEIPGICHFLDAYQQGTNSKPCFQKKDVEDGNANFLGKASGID
T1 sequence (Q02153 1-619): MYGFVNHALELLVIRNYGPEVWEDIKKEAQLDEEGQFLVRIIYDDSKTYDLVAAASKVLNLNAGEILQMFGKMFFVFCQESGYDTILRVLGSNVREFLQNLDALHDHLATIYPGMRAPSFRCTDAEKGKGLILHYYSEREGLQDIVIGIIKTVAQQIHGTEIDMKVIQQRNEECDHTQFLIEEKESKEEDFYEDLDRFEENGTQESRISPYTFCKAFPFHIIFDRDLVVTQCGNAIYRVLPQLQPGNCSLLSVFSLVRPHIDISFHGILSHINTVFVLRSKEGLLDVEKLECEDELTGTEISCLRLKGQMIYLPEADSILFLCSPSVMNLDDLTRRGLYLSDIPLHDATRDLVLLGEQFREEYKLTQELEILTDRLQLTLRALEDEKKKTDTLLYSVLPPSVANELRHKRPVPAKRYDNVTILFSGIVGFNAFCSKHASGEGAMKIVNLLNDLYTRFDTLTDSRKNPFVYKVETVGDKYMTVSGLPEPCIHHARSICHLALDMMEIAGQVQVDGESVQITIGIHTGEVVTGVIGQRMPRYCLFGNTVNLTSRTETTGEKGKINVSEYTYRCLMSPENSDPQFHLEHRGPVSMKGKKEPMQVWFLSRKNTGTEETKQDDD
In words: Cell-based sGC functional assay (CASA assay): cGMP generation in CHO-K1/sGC cells, HTRF detection. The conditions noted are these: for Emax: CHO-K1, percent activation relative to standard Compound A in CHO-K1/sGC cells, read-out: % Act.; for EC50: inflection point (IP) of cGMP generation in CHO-K1/sGC cells, 4P fit, activity expressed as percentage of Compound A. In outline: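 cGMP was quantified by HTRF after 1 hr, 37° C exposure of thawed CHO-K1 cells expressing sGC α1/β1 to compound, with or without 1 μM DETA-NO. IBMX (0.5 mM) blocked cGMP breakdown, and DMSO was 2.5% final. Percent of standard Compound A's maximal cGMP was fitted (4P) for inflection point.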
Background: TR-FRET usually uses a lanthanide donor and a delayed reading to cut background.

Consider `Cc1cnc(C2(C3CC3)C(=O)Nc3nc(-c4cn5ccnc5c(CCC(F)(F)C(F)(F)F)n4)nc(N)c32)cn1` (single isomer, unassigned) [Example 342B, 4-amino-5-cyclopropyl-5-(5-methylpyrazin-2-yl)-2-(8-(3,3,4,4,4-pentafluorobutyl)imidazo[1,2-a]pyrazin-6-yl)-5H-pyrrolo[2,3-d]pyrimidin-6(7H)-one], for which the “Maximum peak decrease of systolic blood pressure (SBP) in SHR, Cat.” value (“Maximum peak decrease” below) in test [1] (P.O. 1.0 mpk) is listed as “A (Category A=SBP in SHRs<20 mmHg)”. Moreover, at sGC α1/β1 heterodimer, the Emax was 177% and a half-maximal effect (EC50) was put at 695 nM.

With `Nc1nc(-c2cn3ccnc3c(CCC(F)(F)C(F)(F)F)n2)nc2c1C(c1ccc(F)cc1)(C1CCC1)C(=O)N2` (single isomer, unassigned) [Example 344B, 4-amino-5-cyclobutyl-5-(4-fluorophenyl)-2-(8-(3,3,4,4,4-pentafluorobutyl)imidazo[1,2-a]pyrazin-6-yl)-5H-pyrrolo[2,3-d]pyrimidin-6(7H)-one], the “Maximum peak decrease” value in test [1] (P.O. 0.3 mpk) was “A (Category A=SBP in SHRs<20 mmHg)”. For the same compound, at sGC α1/β1 heterodimer, the Emax was determined as 163% and the EC50 (commonly the concentration needed to bring the measured effect to its halfway point) came out at 51 nM.

For `Nc1nc(-c2cn3ccnc3c(CCC(F)(F)F)n2)nc2c1C(c1ccc(F)cc1)(C1CCC1)C(=O)N2` (single isomer, unassigned) [Example 345B, 4-amino-5-cyclobutyl-5-(4-fluorophenyl)-2-(8-(3,3,3-trifluoropropyl)imidazo[1,2-a]pyrazin-6-yl)-5H-pyrrolo[2,3-d]pyrimidin-6(7H)-one], in test [1] (P.O. 3.0 mpk), the “Maximum peak decrease” value is listed as “A (Category A=SBP in SHRs<20 mmHg)”. Also, at sGC α1/β1 heterodimer, the Emax came to 148% and the midpoint of the response, the EC50, lay at 949 nM.

Take `Nc1nc(-c2cn3ccnc3c(CCCC(F)(F)F)n2)nc2c1C(c1cc(C(F)(F)F)ccn1)(C1CC1)C(=O)N2` (single isomer, unassigned) [Example 354B, 4-amino-5-cyclopropyl-2-(8-(4,4,4-trifluorobutyl)imidazo[1,2-a]pyrazin-6-yl)-5-(4-(trifluoromethyl)pyridin-2-yl)-5H-pyrrolo[2,3-d]pyrimidin-6(7H)-one]: the “Maximum peak decrease” value in test [1] (P.O. 1.0 mpk) is reported as “A (Category A=SBP in SHRs<20 mmHg)”. At sGC α1/β1 heterodimer, the Emax was 137% and the EC50 was 170 nM.

Consider `CCCCc1nc(-c2nc(N)c3c(n2)NC(=O)C3(c2cccc(C(F)(F)F)n2)C2CC2)cn2ccnc12` (single isomer, unassigned) [Example 355A, 4-amino-2-(8-butylimidazo[1,2-a]pyrazin-6-yl)-5-cyclopropyl-5-(6-(trifluoromethyl)pyridin-2-yl)-5H-pyrrolo[2,3-d]pyrimidin-6(7H)-one], for which, in test [1] (P.O. 1.0 mpk), the “Maximum peak decrease” value was “A (Category A=SBP in SHRs<20 mmHg)”. For the same compound, at sGC α1/β1 heterodimer, the Emax came to 126% and the EC50 was determined as 202 nM.

In the case of `Nc1nc(-c2cn3ccnc3c(CCCC(F)(F)F)n2)nc2c1C(c1ccc(C(F)F)cn1)(C1CC1)C(=O)N2` (single isomer, unassigned) [Example 378B, 4-amino-5-cyclopropyl-5-(5-(difluoromethyl)pyridin-2-yl)-2-(8-(4,4,4-trifluorobutyl)imidazo[1,2-a]pyrazin-6-yl)-5H-pyrrolo[2,3-d]pyrimidin-6(7H)-one], the “Maximum peak decrease” value in test [1] (P.O. 1.0 mpk) was “B (Category B=SBP in SHRs 20-40 mmHg)”. Also, on sGC α1/β1 heterodimer, the Emax stood at 92% and the EC50 stood at 373 nM.

Take `CCCCc1nc(-c2nc(N)c3c(n2)NC(=O)C3(C)c2ccc(F)cc2)cn2ccnc12` (stereo not drawn) [Example 8A, 4-amino-2-(8-butylimidazo[1,2-a]pyrazin-6-yl)-5-(4-fluorophenyl)-5-methyl-5H-pyrrolo[2,3-d]pyrimidin-6(7H)-one]: the “Maximum peak decrease” value in test [1] (P.O. 0.3 mpk) is recorded as “C (Category C=SBP in SHRs>40 mmHg)”. Moreover, on sGC α1/β1 heterodimer, the Emax is 137% and the EC50 is 45 nM.
